According to PubChem BioAssay AID179 (DTP/NCI, 2004):
The source made the active and inactive calls.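 The calls were made as follows: active = compounds giving half or more protection of infected cells from virus-caused growth loss, again on retest; inactive = the rest.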 Where a SMILES comes first, the peptide text is derived from it. [ ]: non-standard residue; d: D form. The star is where a group is joined. X4 = CC(C)(C)c1cc(OCC(=O)*)ccc1Sc1c(O)cc(-c2ccccc2)oc1=O; NMeLeu(3R-OH) = CN[C@H](C(=O)O)[C@H](O)C(C)C; NMeL = CN[C@@H](CC(C)C)C(=O)O; NMeV = CN[C@H](C(=O)O)C(C)C; dNMeS = CN[C@H](CO)C(=O)O; Abu = CC[C@H](N)C(=O)O

System: CEM cells HIV-1 protection, formazan growth assay
Assay: NCI AIDS Antiviral Assay
Conditions: for IC50: measured here: growth of uninfected CEM cells
Summary of the method: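 Screen of anti-HIV-1 activity in human CEM cells using a formazan-based growth measurement at five drug concentrations. Hits with 50% or greater protection were repeated, and confirmation required reproducible complete protection.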

| Structure (SMILES) | EC50 [µM] | IC50 [µM] | outcome |
| --- | --- | --- | --- |
| O=C1c2cccnc2S(=O)N1Cc1ccccc1 (configuration not stated) | 105 | > 200 | – |
| O=C1O[C@H]2[C@@H](I)[C@H]3C[C@H]2[C@H]1[C@H]3c1ccccc1 | > 200 | > 200 | – |
| S=C(SSSSC(=S)N(C1CCCCC1)C1CCCCC1)N(C1CCCCC1)C1CCCCC1 | > 200 | 126 | – |
| N#CCc1nc(-c2cc3ccccc3oc2=O)cs1 | > 200 | 38 | – |
| CC(C)CCSSCCC(C)C | > 200 | > 200 | – |
| S=c1[nH]ccs1 | > 200 | > 200 | – |
| O=C(O)C1(P(=O)(O)O)CC1 | – | – | inactive |
| C[C@H](N)C(O)C/C=C\CC(O)/C=C/C=C\C/C=C\C/C=C\C/C=C\CCCCCCC(O)[C@H](C)N (some centres not stated) | – | – | inactive |
| Cc1ncc(CO)c(CO)c1OCC(O)CN1CCN(c2ccc(F)cc2)CC1 (configuration not stated) | > 200 | 97.7 | – |
| CC[C@@H]1NC(=O)[C@H]([C@H](O)C(C)C)N(C)C(=O)[C@H](C(C)C)N(C)C(=O)[C@H](CC(C)C)N(C)C(=O)[C@H](CC(C)C)N(C)C(=O)[C@@H](C)NC(=O)[C@H](CCCCNC(=O)COc2ccc(Sc3c(O)cc(-c4ccccc4)oc3=O)c(C(C)(C)C)c2)NC(=O)[C@H](CC(C)C)N(C)C(=O)[C@H](C(C)C)NC(=O)[C@H](CC(C)C)N(C)C(=O)[C@@H](CO)N(C)C1=O (cyclo([Abu][dNMeS][NMeL]V[NMeL]K(X4)[dA][NMeL][NMeL][NMeV][NMeLeu(3R-OH)])) | > 67.6 | 4.57 | – |
| CCOC(=O)C(=CNc1cccc(NC=C(C(=O)OCC)C(=O)OCC)c1)C(=O)OCC | > 200 | 19.1 | – |
| Cc1ccc2c(c1)nc(N)n[n+]2[O-] | > 100 | > 100 | – |
| CCOC(=O)C/C(C)=N\NC(=O)c1ccncc1 | > 200 | > 200 | – |
| CC(=O)N1N=C(c2ccc3ccccc3c2O)CC1c1ccc(N(C)C)cc1 (configuration not stated) | > 50.1 | > 50.1 | – |
| O=C(/N=N/C(=O)N1CCCCC1)N1CCCCC1 | > 67.6 | 28.8 | – |
| O=S(=O)(SSS(=O)(=O)c1ccc(Cl)c(Cl)c1)c1ccc(Cl)c(Cl)c1 | > 53.7 | > 53.7 | – |
| C=CCn1c(=S)sc2c(=O)[nH]cnc21 | > 1120 | 195 | – |
| Cc1ccc(S(=O)(=O)OI(C#CC(C)(C)C)c2ccccc2)cc1 | > 200 | 1.05 | – |
| COc1cc2c[n+](C)c3c4ccccc4ccc3c2cc1OC (tested in a mixture with another compound) | > 170 | 6.03 | – |
| CC(/C=C/C=C/C=C/C=C/C=C/C(O)=C1/C(=O)C(CCC(=O)O)N(C)C1=O)=C\C(C)C(OC1CC(O)C(O)C(C)O1)C(C)C (configuration not stated) | – | – | inactive |
| COc1ccc(C2(C3c4cc(OC)c(OC)cc4CCN3C)SCCCS2)cc1O (configuration not stated) | > 200 | 151 | – |

| Structure (SMILES) | EC50 [µM] | IC50 [µM] | outcome |
| --- | --- | --- | --- |
| C[C@H](CCC(=O)O[C@@H]1CC[C@@]2(C)C(CC[C@H]3[C@@H]4CC[C@H]([C@H](C)CCc5nc6ccccc6[nH]5)[C@@]4(C)CC[C@@H]32)C1)[C@H]1CC[C@H]2[C@@H]3CCC4C[C@H](O)CC[C@]4(C)[C@H]3CC[C@]12C (some centres not stated) | > 100 | > 100 | – |
| O=C(Nc1cccc(F)c1)c1c(O)[nH]c(=S)[nH]c1=O | > 5.13 | > 5.13 | – |
| O=C1NC2(C=Cc3c(ccc4ccccc34)O2)Oc2ccccc21 (configuration not stated) | > 11.5 | > 11.5 | – |
| CC1Oc2cc3c(-c4c(O)cc(O)c5c(O)c6c(cc45)OC(C)C(C)C6=O)c(O)cc(O)c3c(O)c2C(=O)C1C (configuration not stated) | > 34.7 | 0.38 | – |
| CC(=O)NC1C(OCc2ccccc2)OC(CO)C(O)C1OC(C)C(=O)NC(C)C(=O)N[C@@H](CCC(=O)OCCCNC1c2ccccc2Nc2cccc([N+](=O)[O-])c21)C(N)=O (some centres not stated) | – | – | inactive |
| CC(=O)NC(CCCNCc1ccccc1)C(=O)NCc1ccccc1 (configuration not stated) | > 708 | > 708 | – |
| Nc1ccc(Oc2ccc(S(=O)(=O)c3ccc(Oc4ccc(N)cc4N)cc3)cc2)c(N)c1 | > 200 | 120 | – |
| CC(=O)OCCn1c(Cc2ccc(Cl)cc2)nn(C(C)=O)c1=O | > 200 | > 200 | – |
| Cc1cc(C)c2c(c1)CC1(Cc3c(C)cc(C)cc3C1=O)C2=O (configuration not stated) | > 100 | > 100 | – |
| O=C(O)c1cc(I)cc(I)c1O | > 646 | 107 | – |
| O=C(NO)Nc1ccc(Cl)c(Cl)c1 | – | 56.2 | inactive |
| CCc1nnc2c3cc4ccccc4n3cnn12 | > 151 | > 151 | – |
| O=C1/C(=C/c2ccccc2)CCCC1CN1CCCCC1 (configuration not stated) | > 200 | 0.676 | – |
| CCOC(=O)c1ccc(NC(=O)O/N=C(/Cl)C(C)C)cc1 | > 200 | 10.5 | – |
| O=C(CN1CCN(c2ccccc2)CC1)c1ccc2[nH]c(=O)oc2c1 | > 200 | > 200 | – |
| CCOC(=O)c1cc2c3c(c1)C(=O)C(C)CN3CC(C)C2=O (configuration not stated) | – | – | inactive |
| CCCCNC(=S)/N=C/c1c(O)c2ccccc2oc1=O | > 200 | 182 | – |
| COC(=O)C12C3C4C5(C(=O)OC)C(C1C35C(=O)N(C(C)C)C(C)C)C42C(=O)N(C(C)C)C(C)C (configuration not stated) | > 55 | > 55 | – |
| Nc1cnn2cnnc2c1 | > 200 | > 200 | – |
| CSC(=Nc1ccc([N+](=O)[O-])cc1C#N)NC(=O)c1ccccc1 | – | – | inactive |
| CN1C2CCCC1CC(=O)NC2 (configuration not stated) | > 1480 | > 1480 | – |

| Structure (SMILES) | EC50 [µM] | IC50 [µM] | outcome |
| --- | --- | --- | --- |
| [N-]=[NH+]CC(=O)OC(COCc1ccccc1)COCc1ccccc1 | > 200 | 117 | – |
| CCN(CC)CCOC(=O)C1(CCC(C)C)CCCCC1 | > 200 | 123 | – |
| COC(=O)CC1CCC(c2ccn(S(=O)(=O)c3ccccc3)c2)=NO1 (configuration not stated) | > 200 | > 200 | – |
| Cc1cc(N=Nc2c(O)c3ccccc3[nH]c2=O)ccc1N=Nc1ccc(C(=O)N(C)C)cc1 | > 200 | 151 | – |
| O=C(O)c1cccc(S(=O)(=O)NN2C(=O)CSC2c2ccccc2Cl)c1 (configuration not stated) | > 195 | 166 | – |
| COc1ccc2nc3c([N+](=O)[O-])ccc(NCCN(C)C)c3c(NCCN(C)C)c2c1 | > 200 | 1.07 | – |
| O=C1c2cccc3cccc(c23)C(=O)N1c1nccs1 | > 50.1 | > 50.1 | – |
| COc1ccc(C(=O)/C=C/c2ccc(OCCCCCCCCCCOc3ccc(/C=C/C(=O)c4ccc(OC)c(OC)c4)cc3)cc2)c(OC)c1 | – | – | inactive |
| CN(C)C(C(N)=O)c1ccccc1 (configuration not stated) | > 200 | > 200 | – |
| O=C1CCC/C1=C1/SS/C(=C2/CCCC2=O)S1 | > 200 | 102 | – |
| Cn1nc2ccccc2cc1=O | > 1550 | 661 | – |
| Cc1ccc(-n2c3nc(=O)n(C)c(=O)c-3nc3ccccc32)cc1 | – | – | inactive |
| C[C@H]1Oc2c3c(c4ccc(=O)oc4c2C(=O)[C@@H]1C)OC(C)(C)C=C3 | > 200 | > 200 | – |
| Nc1ccc(/C=C/c2ccc(NS(=O)(=O)c3ccnc4c(O)c(C(=O)O)ccc34)cc2S(=O)(=O)O)c(S(=O)(=O)O)c1 | 69.2 | > 100 | – |
| CC1(Br)C(=O)NC(=O)N(C2CC(N=[N+]=[N-])C(CO)O2)C1N=[N+]=[N-] (configuration not stated) | – | 89.1 | active |
| COc1ccc(C2c3cc4c(cc3OC3(OC)COC(=O)C23)OCO4)c(OC)c1 (configuration not stated) | > 100 | 4.68 | – |
| CC(=O)NC(CCCCNC(=O)OC(C)(C)C)C(=O)O (configuration not stated) | > 200 | > 200 | – |
| O=C(O)c1cccc(Sc2ccccc2)c1 | > 407 | 251 | – |
| Cc1ccc(S(=O)(=O)N(CCN)c2cc3c4c(c2)Oc2cccc5c2C4c2c(cccc2O3)O5)cc1 | > 200 | 35.5 | – |
| CN(C)c1ccc(/C=C/C(=O)/C=C/c2ccc(N(C)C)cc2)cc1 | > 4.27 | > 4.27 | – |
| C[C@H](NC1=CC(=O)C(N[C@@H](C)[C@H](O)c2ccccc2)=CC1=O)[C@H](O)c1ccccc1 | > 200 | 141 | – |

| Structure (SMILES) | EC50 [µM] | IC50 [µM] | outcome |
| --- | --- | --- | --- |
| Cc1c(-c2nnc(-c3ccc(Cl)cc3)o2)c(=O)n(-c2ccccc2)n1C | > 200 | > 200 | – |
| COc1cnc([C@H]2CCC3[C@@H]4CC=C5C[C@@H](OC(C)=O)CC[C@]5(C)C4CC[C@@]32C)s1 (some centres not stated) | > 21.9 | > 21.9 | – |
| CCC12C=CCN3CC[C@]4(C(=C(C(=O)OC)[C@@H]1Nc1ccn(C5OC(COC(C)=O)C(OC(C)=O)C5OC(C)=O)c(=O)n1)Nc1ccccc14)C32 (some centres not stated) | > 26.9 | 3.63 | – |
| C=CCOC1CC(n2cnc3c(N)ncnc32)OC1CO (configuration not stated) | > 200 | > 200 | – |
| Cc1cc(NS(=O)(=O)c2ccc(NC(=O)c3ccc(Cl)c4c(Nc5ccc(S(N)(=O)=O)cc5)c5ccccc5nc34)cc2)no1 | > 38.9 | 26.3 | – |
| O=C(O)c1cscc1C(=O)O | > 200 | > 200 | – |
| CCCCCCCC/C=C\CCCCCCC(F)C(=O)O (configuration not stated) | 33.1 | > 200 | – |
| COc1cc(C2c3cc4c(cc3C(O)[C@H]3COC(=O)C23)OCO4)cc(OC)c1O (some centres not stated) | > 200 | 0.0631 | – |
| N#Cc1nc(CSCc2ccccc2)oc1N | > 200 | 117 | – |
| C1CCC2C(C1)CCCC2NC1=NCCO1 (configuration not stated) | > 200 | 115 | – |
| Cc1c(C(=O)CC(=O)C(=O)Nc2cccc(C(F)(F)F)c2)[n+](=O)c2ccccc2n1[O-] | > 40.7 | 3.55 | – |
| O=c1c2cc(-c3ccccc3)cnc2sn1-c1ccc(Br)cc1 | 110 | 186 | – |
| CCCCc1c2c(nc3c1CCc1cc4c(nc1-3)-c1nc3c(c(CCCC)c1CC4)CCC/C3=C\c1ccccc1)/C(=C/c1ccccc1)CCC2 | > 5.5 | > 5.5 | – |
| O=C(Cl)c1ccc([As](=O)(O)O)cc1 | > 200 | > 200 | – |
| C#CCNC(=O)ON1C(=O)CCC1=O | > 1260 | > 1260 | – |
| CN(C)/C=C/C(=CC=[N+](C)C)/C=C/N(C)C | – | – | inactive |
| C=CC(C)(O)CNc1ccccc1 (configuration not stated) | > 204 | > 204 | – |
| O=S1(=O)OCCOS(=O)(=O)C1Cl | > 1050 | 178 | – |
| O=C(OCc1ccccc1)C(Cc1ccccc1)N(Cc1ccccc1)Cc1ccccc1 (configuration not stated) | > 200 | > 200 | – |
| c1ccc2c(c1)cc1c3[nH]c4ccccc4c3ccn21 | > 200 | 6.76 | – |
